Experimental data taken from patent publication US12371428B2 (Exelixis, Inc., priority 2019, dated 2025).
pIC50: −log10 of the molar value.

How the values were obtained:
[1] = biological target: Human MER (residues 528-999) (Homo sapiens (Human), UniProt Q12866); experiment: Human Mer kinase assay, HTRF KinEase (Example C-2); type: biochemical; conditions: protocol of Example C-2 (other compounds)
Summary of the method: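 IC50 values from 10 concentrations via 4-parameter logistic fit of […], with DMSO as 100% and 1 μM reference compound as 0% activity. Reaction: MER kinase domain 528-999, 1 ng/well, 40 μM ATP (Km), biotin peptide, 5 mM MgCl2, 1 mM DTT, 3% DMSO, room temperature 60 min; HTRF streptavidin-XL665/Eu-antibody detection.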

[2] = biological target: KDR (phospho-KDR, VEGF165-stimulated HUVEC cells) (Homo sapiens (Human), UniProt P35968); experiment: KDR autophosphorylation ELISA in HUVEC cells (Example G); type: cell-based; conditions: cellular activity; KDR autophosphorylation ELISA in HUVEC cells
Sequence of KDR (phospho-KDR, VEGF165-stimulated HUVEC cells) (P35968 20-1356): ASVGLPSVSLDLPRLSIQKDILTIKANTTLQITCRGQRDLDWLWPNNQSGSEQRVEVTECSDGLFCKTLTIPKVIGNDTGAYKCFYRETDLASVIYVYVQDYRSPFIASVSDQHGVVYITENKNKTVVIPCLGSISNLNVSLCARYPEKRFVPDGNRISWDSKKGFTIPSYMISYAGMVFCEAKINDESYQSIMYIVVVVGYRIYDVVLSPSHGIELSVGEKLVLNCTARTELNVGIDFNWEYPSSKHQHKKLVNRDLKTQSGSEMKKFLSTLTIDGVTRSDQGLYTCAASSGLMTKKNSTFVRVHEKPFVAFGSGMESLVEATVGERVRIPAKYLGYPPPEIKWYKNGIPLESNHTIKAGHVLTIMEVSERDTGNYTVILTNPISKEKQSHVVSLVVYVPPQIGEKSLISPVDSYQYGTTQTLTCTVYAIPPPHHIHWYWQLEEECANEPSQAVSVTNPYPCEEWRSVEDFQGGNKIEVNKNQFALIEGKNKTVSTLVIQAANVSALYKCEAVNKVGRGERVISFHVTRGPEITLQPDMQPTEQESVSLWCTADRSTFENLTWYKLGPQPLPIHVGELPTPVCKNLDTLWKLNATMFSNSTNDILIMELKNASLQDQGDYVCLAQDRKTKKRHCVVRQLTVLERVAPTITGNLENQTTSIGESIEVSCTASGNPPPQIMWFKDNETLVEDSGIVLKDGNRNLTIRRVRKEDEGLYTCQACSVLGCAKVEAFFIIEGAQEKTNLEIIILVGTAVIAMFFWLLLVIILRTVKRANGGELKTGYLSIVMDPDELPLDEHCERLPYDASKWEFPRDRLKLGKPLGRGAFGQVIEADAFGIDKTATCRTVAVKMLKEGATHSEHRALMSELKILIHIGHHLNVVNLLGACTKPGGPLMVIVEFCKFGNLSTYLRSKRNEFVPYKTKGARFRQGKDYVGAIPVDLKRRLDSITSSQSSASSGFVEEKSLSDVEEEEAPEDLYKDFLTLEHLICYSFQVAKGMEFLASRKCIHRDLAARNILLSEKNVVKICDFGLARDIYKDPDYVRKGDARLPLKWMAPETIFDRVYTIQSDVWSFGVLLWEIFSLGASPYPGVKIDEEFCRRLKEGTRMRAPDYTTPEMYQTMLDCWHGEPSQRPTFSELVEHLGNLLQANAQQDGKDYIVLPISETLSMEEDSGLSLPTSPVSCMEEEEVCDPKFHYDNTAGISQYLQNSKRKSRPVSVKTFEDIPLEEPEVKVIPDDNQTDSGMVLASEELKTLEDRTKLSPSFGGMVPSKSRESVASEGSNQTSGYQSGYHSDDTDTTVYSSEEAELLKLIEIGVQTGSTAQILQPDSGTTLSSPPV
Summary of the method: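 HUVECs were serum-starved 24 h, given compound as an 8-point dilution series (0.3% DMSO final) for 1 h, then stimulated with 100 ng/mL VEGF165 for 5 min. Lysate phospho-KDR was quantified by sandwich ELISA against a phospho-KDR standard, and IC50s came from a 4-parameter logistic fit.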

[3] = biological target: Met (phospho-Met, HGF-stimulated PC-3 prostate cancer cells) (Homo sapiens (Human), UniProt P08581); experiment: Met autophosphorylation ELISA in PC-3 cells (Example F); type: cell-based; conditions: cellular activity; Met autophosphorylation ELISA in PC-3 cells; read-out: c-Met IC50
Sequence of Met (phospho-Met, HGF-stimulated PC-3 prostate cancer cells) (P08581 25-1390): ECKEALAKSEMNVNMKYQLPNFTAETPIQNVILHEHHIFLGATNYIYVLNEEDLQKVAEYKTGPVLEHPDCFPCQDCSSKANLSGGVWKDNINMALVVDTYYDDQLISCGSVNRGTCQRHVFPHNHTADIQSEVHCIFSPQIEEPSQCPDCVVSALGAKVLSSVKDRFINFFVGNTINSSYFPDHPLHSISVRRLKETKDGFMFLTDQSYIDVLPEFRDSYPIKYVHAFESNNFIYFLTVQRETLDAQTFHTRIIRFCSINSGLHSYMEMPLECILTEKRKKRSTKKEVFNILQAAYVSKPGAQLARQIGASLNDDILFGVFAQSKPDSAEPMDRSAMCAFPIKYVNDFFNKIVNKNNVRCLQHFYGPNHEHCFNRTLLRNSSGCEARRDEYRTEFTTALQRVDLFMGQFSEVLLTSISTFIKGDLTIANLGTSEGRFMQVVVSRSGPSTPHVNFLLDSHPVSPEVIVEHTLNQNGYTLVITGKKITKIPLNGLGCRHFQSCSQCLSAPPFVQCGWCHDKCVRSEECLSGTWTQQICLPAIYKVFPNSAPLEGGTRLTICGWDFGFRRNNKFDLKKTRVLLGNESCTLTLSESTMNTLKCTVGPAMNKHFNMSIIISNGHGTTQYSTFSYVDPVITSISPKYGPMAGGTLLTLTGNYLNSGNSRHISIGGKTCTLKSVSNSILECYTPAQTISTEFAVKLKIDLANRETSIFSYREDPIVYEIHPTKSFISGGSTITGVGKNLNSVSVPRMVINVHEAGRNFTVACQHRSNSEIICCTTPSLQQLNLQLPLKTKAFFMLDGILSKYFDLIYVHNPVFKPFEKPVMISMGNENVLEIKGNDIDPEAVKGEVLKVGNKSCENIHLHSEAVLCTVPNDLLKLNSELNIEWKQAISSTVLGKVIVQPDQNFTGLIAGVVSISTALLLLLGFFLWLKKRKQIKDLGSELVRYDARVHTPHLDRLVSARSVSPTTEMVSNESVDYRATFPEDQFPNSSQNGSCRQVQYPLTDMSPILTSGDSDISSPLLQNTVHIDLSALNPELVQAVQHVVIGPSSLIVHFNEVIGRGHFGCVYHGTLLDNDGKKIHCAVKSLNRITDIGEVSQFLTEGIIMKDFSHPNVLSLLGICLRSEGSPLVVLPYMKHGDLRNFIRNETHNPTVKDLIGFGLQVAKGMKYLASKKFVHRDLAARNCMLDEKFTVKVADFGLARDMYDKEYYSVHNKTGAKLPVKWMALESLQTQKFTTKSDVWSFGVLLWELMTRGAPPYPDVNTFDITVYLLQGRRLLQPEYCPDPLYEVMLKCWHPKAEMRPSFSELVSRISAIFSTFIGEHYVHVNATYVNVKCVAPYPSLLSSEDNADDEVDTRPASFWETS
Summary of the method: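 IC50 values derive from a 4-parameter logistic fit of phospho-Met (panTyr) sandwich ELISA signals in PC-3 lysates, scaled between DMSO and reference-inhibitor wells. Cells, starved 3 h in serum-free medium, had 1 h compound exposure (8 doses, 0.3% DMSO) before 10 min stimulation with 100 ng/mL HGF.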

[4] = biological target: Human KDR (residues 790-1356) (Homo sapiens (Human), UniProt P35968); experiment: Human KDR kinase assay, HTRF KinEase (Example B-2); type: biochemical; conditions: protocol of Example B-2 (other compounds)
Sequence of Human KDR (residues 790-1356) (P35968 790-1356): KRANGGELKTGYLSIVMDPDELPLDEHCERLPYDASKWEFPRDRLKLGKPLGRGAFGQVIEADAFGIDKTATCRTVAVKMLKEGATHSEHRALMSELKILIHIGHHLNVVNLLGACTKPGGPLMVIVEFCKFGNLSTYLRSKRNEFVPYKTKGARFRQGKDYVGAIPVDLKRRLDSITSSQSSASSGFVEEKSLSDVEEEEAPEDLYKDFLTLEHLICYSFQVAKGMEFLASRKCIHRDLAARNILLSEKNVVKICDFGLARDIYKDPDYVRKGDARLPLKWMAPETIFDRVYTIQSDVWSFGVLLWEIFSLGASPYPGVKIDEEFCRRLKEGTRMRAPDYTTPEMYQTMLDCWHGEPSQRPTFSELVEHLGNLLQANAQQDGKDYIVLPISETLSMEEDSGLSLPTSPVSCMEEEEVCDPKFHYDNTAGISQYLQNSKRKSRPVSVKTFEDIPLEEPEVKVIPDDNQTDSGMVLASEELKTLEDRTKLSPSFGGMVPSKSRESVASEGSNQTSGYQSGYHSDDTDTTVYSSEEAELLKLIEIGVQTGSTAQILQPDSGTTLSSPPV
Summary of the method: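 Human KDR residues 790-1356 (0.1 ng/well) in buffer with 5 mM MgCl2, 1 mM MnCl2, 1 mM DTT, biotinylated peptide substrate, ATP at Km (4.0 μM), 3% DMSO, 10 compound concentrations; 40 min, room temperature. EDTA stop, streptavidin-XL665/Eu-TK antibody HTRF read 665/620 nm; 4-parameter IC50.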

Sequence of Human MER (residues 528-999) (Q12866 528-999): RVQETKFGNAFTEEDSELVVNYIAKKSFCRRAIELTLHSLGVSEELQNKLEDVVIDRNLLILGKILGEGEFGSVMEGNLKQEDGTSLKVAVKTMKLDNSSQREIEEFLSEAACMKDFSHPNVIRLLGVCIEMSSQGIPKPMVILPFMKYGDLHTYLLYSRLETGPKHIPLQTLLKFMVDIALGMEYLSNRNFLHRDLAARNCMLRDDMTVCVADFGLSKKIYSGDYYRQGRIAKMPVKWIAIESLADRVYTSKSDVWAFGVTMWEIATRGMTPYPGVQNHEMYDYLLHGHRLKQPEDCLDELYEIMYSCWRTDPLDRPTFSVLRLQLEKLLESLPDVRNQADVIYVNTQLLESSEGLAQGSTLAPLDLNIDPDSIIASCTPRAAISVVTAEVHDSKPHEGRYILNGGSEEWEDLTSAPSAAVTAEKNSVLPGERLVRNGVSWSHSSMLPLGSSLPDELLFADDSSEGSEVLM

Compound | pIC50 [1] | pIC50 [2] | pIC50 [3] | pIC50 [4]
COc1cc2nccc(Oc3ccc(NC(=O)c4cn(C5CC5)c(C)c(-c5ccc(F)cc5)c4=O)cc3F)c2nc1OC [Compound 433, 1-cyclopropyl-N-[4-[(6,7-dimethoxy-1,5-naphthyridin-4-yl)oxy]-3-fluorophenyl]-5-(4-fluorophenyl)-6-methyl-4-oxopyridine-3-carboxamide] | > 7.00 | < 6.52 | > 7.00 | < 6.52
COc1cc2nccc(Oc3ccc(NC(=O)c4cn(C5CC5)c(C)c(-c5ccc(F)cc5)c4=O)cc3)c2nc1OC [Compound 434, 1-cyclopropyl-N-[4-[(6,7-dimethoxy-1,5-naphthyridin-4-yl)oxy]phenyl]-5-(4-fluorophenyl)-6-methyl-4-oxopyridine-3-carboxamide] | > 7.00 | < 6.52 | > 7.00 | < 6.52
COc1ccc2nccc(Oc3ccc(NC(=O)c4cn(C5CC5)c(C)c(-c5ccc(F)cc5)c4=O)cc3F)c2n1 [Compound 435, 1-cyclopropyl-N-[3-fluoro-4-[(6-methoxy-1,5-naphthyridin-4-yl)oxy]phenyl]-5-(4-fluorophenyl)-6-methyl-4-oxopyridine-3-carboxamide] | > 7.00 | < 6.52 | > 7.00 | < 6.52
COCCOc1nc2c(Oc3ccc(NC(=O)c4cnc(C)c(-c5ccc(F)cc5)c4O)cc3F)ccnc2cc1C [Compound 436, N-[3-fluoro-4-[[6-(2-methoxyethoxy)-7-methyl-1,5-naphthyridin-4-yl]oxy]phenyl]-5-(4-fluorophenyl)-4-hydroxy-6-methylpyridine-3-carboxamide] | > 7.00 | > 7.00 | > 7.00 | 6.52 to 7.00

Now from value to molecule:

pIC50 [1] | pIC50 [2] | pIC50 [3] | pIC50 [4] | Compound
> 7.00 | > 7.00 | > 7.00 | 6.52 to 7.00 | Cc1cc(F)ccc1-c1c(C)nc(C)c(C(=O)Nc2ccc(Oc3ccnc4cc(C)c(F)nc34)c(F)c2)c1O [Compound 428, N-[3-fluoro-4-[(6-fluoro-7-methyl-1,5-naphthyridin-4-yl)oxy]phenyl]-5-(4-fluoro-2-methylphenyl)-4-hydroxy-2,6-dimethylpyridine-3-carboxamide]
> 7.00 | < 6.52 | > 7.00 | < 6.52 | Cc1cc(F)ccc1-c1c(C)n(C)cc(C(=O)Nc2ccc(Oc3ccnc4cc(C)c(F)nc34)c(F)c2)c1=O [Compound 429, N-[3-fluoro-4-[(6-fluoro-7-methyl-1,5-naphthyridin-4-yl)oxy]phenyl]-5-(4-fluoro-2-methylphenyl)-1,6-dimethyl-4-oxopyridine-3-carboxamide]
> 7.00 | < 6.52 | > 7.00 | < 6.52 | Cc1cc(F)ccc1-c1c(C)nnc(C(=O)Nc2ccc(Oc3ccnc4cc(C)c(F)nc34)c(F)c2)c1O [Compound 430, N-[3-fluoro-4-[(6-fluoro-7-methyl-1,5-naphthyridin-4-yl)oxy]phenyl]-5-(4-fluoro-2-methylphenyl)-4-hydroxy-6-methylpyridazine-3-carboxamide]
> 7.00 | > 7.00 | > 7.00 | > 7.00 | COc1nc2c(Oc3ccc(NC(=O)c4c(C)nc(C)c(-c5ccc(F)cc5)c4O)cc3F)ccnc2cc1O [Compound 431, N-[3-fluoro-4-[(7-hydroxy-6-methoxy-1,5-naphthyridin-4-yl)oxy]phenyl]-5-(4-fluorophenyl)-4-hydroxy-2,6-dimethylpyridine-3-carboxamide]
> 7.00 | > 7.00 | > 7.00 | > 7.00 | COCCOc1cc2nccc(Oc3ccc(NC(=O)c4c(C)nc(C)c(-c5ccc(F)cc5)c4O)cc3F)c2nc1OC [Compound 432, N-[3-fluoro-4-[[6-methoxy-7-(2-methoxyethoxy)-1,5-naphthyridin-4-yl]oxy]phenyl]-5-(4-fluorophenyl)-4-hydroxy-2,6-dimethylpyridine-3-carboxamide]
